Like-named read-outs stand apart in the source and are kept apart here.
Key:
[1] = molecular target: T1, human recombinant serotonin (5-Hydroxytryptamine) 5-HT2A receptor (Homo sapiens, UniProt P28223); assay: Serotonin 5-HT2A radioligand binding ([3H]Ketanserin)
T1 construct: expressed in transfected cells; host or cells: CHO-K1 cells
How it was run: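 Membranes from CHO-K1 cells expressing the receptor, in 50 mM Tris-HCl pH 7.4, incubated 60 min at 25° C with 0.5 nM [3H]Ketanserin; 1 μM Mianserin defines non-specific binding. Filtration and counting; values are % inhibition of specific binding at 1 μM or lower, 1% DMSO.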

[2] = molecular target: T2, human recombinant serotonin (5-Hydroxytryptamine) 5-HT6 receptor (Homo sapiens, UniProt P50406); assay: Serotonin 5-HT6 radioligand binding ([3H]LSD)
T2 construct: expressed in transfected cells; host or cells: human HeLa cells
T2 sequence (P50406 whole entry): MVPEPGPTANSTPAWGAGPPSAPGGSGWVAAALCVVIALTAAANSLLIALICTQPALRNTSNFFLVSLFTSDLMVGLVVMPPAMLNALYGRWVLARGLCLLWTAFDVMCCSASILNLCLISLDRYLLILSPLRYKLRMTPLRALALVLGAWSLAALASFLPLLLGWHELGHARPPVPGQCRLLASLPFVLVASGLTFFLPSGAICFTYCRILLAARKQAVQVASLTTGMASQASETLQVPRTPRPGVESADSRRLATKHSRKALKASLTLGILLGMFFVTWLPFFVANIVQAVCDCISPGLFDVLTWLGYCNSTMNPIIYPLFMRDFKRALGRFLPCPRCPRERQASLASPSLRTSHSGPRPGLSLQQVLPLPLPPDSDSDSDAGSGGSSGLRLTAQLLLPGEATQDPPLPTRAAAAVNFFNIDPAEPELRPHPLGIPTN
How it was run: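 Human 5-HT6 receptor expressed in HeLa cells, in Tris-HCl pH 7.4 with 150 mM NaCl, ascorbic acid and BSA. Compounds at 1 μM or lower (1% DMSO) incubated 120 min at 37° C with 1.5 nM [3H]LSD. Non-specific binding defined with serotonin; filter counting gives % inhibition of specific binding.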

[3] = molecular target: T3, human recombinant adrenergic α1D receptor (Homo sapiens, UniProt P25100); assay: Adrenergic α1D radioligand binding ([3H]Prozosin)
T3 construct: expressed in transfected cells; host or cells: HEK-293 cells
T3 sequence (P25100 1-572): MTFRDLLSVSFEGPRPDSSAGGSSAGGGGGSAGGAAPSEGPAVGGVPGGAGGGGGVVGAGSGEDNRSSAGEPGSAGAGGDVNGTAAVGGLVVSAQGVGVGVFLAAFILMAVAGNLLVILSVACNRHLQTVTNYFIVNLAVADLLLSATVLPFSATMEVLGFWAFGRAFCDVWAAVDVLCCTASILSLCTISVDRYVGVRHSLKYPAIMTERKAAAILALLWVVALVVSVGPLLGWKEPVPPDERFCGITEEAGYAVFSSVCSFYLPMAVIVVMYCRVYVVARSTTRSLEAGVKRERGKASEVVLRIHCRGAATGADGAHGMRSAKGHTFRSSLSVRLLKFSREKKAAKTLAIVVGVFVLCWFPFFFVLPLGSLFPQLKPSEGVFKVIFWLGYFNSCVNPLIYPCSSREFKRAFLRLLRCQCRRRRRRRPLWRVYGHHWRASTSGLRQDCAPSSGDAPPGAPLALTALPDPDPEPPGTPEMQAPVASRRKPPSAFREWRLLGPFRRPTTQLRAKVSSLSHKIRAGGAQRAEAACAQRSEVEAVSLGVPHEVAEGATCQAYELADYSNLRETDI
Procedure: To evaluate in radioligand binding assays the activity of compounds of the invention, human recombinant adrenergic a1D receptor expressed in human embryonic kidney (HEK-293) cells (Kenny, B. A. et al. Br. J. Pharmacol. 115(6):981, 1995) in a 50 mM Tris-HCl buffer, pH 7.4, was used. Compounds of invention were incubated with 0.6 nM [^3H]Prozosin for 60 minutes at 25° C. Non-specific binding was estimated in the presence of 10 μM phentolamine. Receptor proteins were filtered and washed, the filters were then counted to determine [^3H]Prozosin specifically bound. Compounds were screened at 1 μM or lower, using 1% DMSO as vehicle. Biochemical assay results are presented as the percent inhibition of specific binding in Table 4. Adrenergic a2A

[4] = molecular target: T4, human recombinant histamine H1 receptor (Homo sapiens, UniProt P35367); assay: Histamine H1 radioligand binding ([3H]Pyrilamine)
T4 construct: expressed in transfected cells; host or cells: CHO cells
T4 sequence (P35367 whole entry): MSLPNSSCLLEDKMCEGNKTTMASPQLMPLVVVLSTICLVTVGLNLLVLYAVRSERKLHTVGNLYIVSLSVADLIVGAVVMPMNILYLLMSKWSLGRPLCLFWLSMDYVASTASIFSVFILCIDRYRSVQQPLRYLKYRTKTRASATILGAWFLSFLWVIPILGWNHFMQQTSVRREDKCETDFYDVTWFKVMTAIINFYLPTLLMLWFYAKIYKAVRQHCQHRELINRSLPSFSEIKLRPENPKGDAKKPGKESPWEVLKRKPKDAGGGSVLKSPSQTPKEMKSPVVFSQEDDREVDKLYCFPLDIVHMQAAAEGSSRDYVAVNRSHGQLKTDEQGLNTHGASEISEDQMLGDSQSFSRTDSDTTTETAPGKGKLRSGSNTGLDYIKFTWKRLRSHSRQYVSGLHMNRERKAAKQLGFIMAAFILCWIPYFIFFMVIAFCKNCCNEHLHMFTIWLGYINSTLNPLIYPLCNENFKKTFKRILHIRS
How it was run: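 Binding to the human recombinant histamine H1 receptor, expressed in CHO cells, was measured in a modified Tris-HCl buffer (50 mM Tris-HCl, pH 7.4, 2 mM MgCl2, 100 mM NaCl, 250 mM Sucrose). Compounds were incubated with 1.2 nM [3H]Pyrilamine for 180 minutes at 25° C, with 1 μM pyrilamine defining non-specific binding. After filtration and washing, filter counts gave percent inhibition of specific binding.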

[5] = molecular target: T5, human recombinant dopamine D2L receptor (Homo sapiens, UniProt P14416); assay: Dopamine D2L radioligand binding ([3H]Spiperone)
T5 construct: expressed in transfected cells; host or cells: CHO cells
T5 sequence (P14416 whole entry): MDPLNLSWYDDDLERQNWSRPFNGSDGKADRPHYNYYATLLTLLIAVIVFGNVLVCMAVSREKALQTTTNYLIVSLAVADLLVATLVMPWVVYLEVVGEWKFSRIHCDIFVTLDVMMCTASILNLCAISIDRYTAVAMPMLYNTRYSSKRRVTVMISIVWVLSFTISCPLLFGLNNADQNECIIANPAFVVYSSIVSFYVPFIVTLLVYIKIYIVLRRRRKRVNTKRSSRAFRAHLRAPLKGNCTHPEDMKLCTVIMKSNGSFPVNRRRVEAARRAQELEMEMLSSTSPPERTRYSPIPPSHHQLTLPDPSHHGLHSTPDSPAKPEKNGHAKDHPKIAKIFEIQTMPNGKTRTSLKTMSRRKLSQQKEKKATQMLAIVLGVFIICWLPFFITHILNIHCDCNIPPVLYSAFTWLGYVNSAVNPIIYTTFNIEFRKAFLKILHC
How it was run: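 CHO-expressed receptor in 50 mM Tris-HCl pH 7.4 with ascorbic acid, 0.001% BSA, 150 mM NaCl; 0.16 nM [3H]spiperone, 120 min at 25 °C; nonspecific binding with haloperidol.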

[6] = 1 h, read-out: Percent Inhibition of ligand binding Serotonin (1 μM ligand concentration) 5-HT2A
[7] = 2 h, read-out: Percent Inhibition of ligand binding Serotonin (1 μM ligand concentration) 5-HT6
[8] = 1 h, read-out: Percent Inhibition of ligand binding Adrenergic (1 μM ligand conc.) α1D
[9] = 1 μM, read-out: Binding data (Percentage Inhibition) Histamine Binding (1 μM) H1
[10] = 2 h, 1 μM ligand conc., read-out: Percent Inhibition of ligand binding Dopamine (1 μM ligand conc.) D2L

T1 sequence (P28223 whole entry): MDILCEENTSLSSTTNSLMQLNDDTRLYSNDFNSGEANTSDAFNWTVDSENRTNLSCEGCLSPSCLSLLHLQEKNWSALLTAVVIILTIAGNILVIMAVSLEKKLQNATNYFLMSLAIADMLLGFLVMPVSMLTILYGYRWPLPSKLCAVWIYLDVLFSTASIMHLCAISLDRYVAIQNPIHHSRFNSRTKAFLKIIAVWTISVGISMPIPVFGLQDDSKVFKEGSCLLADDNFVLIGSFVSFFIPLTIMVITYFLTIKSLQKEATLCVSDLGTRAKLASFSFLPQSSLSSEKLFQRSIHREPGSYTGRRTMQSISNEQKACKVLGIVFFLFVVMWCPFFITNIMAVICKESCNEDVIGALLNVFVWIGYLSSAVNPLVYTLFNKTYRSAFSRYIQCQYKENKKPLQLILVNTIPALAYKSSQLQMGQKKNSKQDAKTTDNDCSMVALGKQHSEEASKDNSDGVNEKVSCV

Structure (SMILES) | inhibition at 1 µM [1, 6] [%] | inhibition at 1 µM [2, 7] [%] | inhibition at 1 µM [3, 8] [%] | inhibition at 1 µM [4, 9] [%] | inhibition at 1 µM [5, 10] [%] | other results
CCC1c2c(c3cc(C)ccc3n2C(=O)Cc2ccc(F)cc2)CCN1C (stereo not shown) [Compound 159] | 89 | 46 | 25 | 5 | -9 | 
CN1CCc2c(n(CC(O)c3ccccc3F)c3ccc(Cl)cc23)C1 (stereo not shown) [Compound 59, 2-(6-chloro-2-methyl-3,4-dihydro-1H-pyrido[3,4-b]indol-9(2H)-yl)-1-(2-fluorophenyl)ethanol] | 80 | 60 | 30 | 13 | 35 | 
COc1ccc(C(O)Cn2c3c(c4cc(Cl)ccc42)CCN(C)C3)cc1OC (stereo not shown) [Compound 70] | 56 | 21 | 44 | 39 | 0 | 
CN1CCc2c(n(CC(O)c3ccccc3)c3ccc(Cl)cc23)C1 (stereo not shown) [Compound 71] | 87 | 66 | 58 | 54 | 21 | 
CN1CCc2c(n(CC(=O)NC3CCCCC3)c3ccc(Cl)cc23)C1 [Compound 17, 2-(6-chloro-1,2,3,4-tetrahydro-2-methylpyvrido[3,4-b]indol-9-yl)-N-cyclohexylacetamide] | 17 | 3 | 18 | 54 | -3 | 
CN1CCc2c(n(CC(=O)O)c3ccc(Cl)cc23)C1 [Compound 52, 2-(6-chloro-1,2,3,4-tetrahydro-2-methylpyrido[3,4-b]indol-9-yl)acetic acid] | -11 | -4 | -11 | 3 | 1 | 
CN1CCc2c(n(CC(=O)Nc3ccc(F)cc3)c3ccc(Cl)cc23)C1 [Compound 15, 2-(6-chloro-1,2,3,4-tetrahydro-2-methylpyrido[3,4-b]indol-9-yl)-N-(4-fluorophenyl)acetamide] | 6 | -2 | 5 | 0 | -5 | 
C/C(=C\n1c2c(c3cc(C)ccc31)CCN(C)C2)c1ccc(F)cc1 [Compound 91, (E)-9-(2-(4-fluorophenyl)prop-1-enyl)-2,6-dimethyl-2,3,4,9-tetrahydro-1H-pyrido[3,4-b]indole] | 97 | 100 | 73 | 28 | 27 | inhibition at 0.003 µM ([1]; compound concentration 3 nM, read-out: Percentage inhibition of ligand binding to 5-HT2A receptor): 2%; inhibition at 0.01 µM ([1]; compound concentration 10 nM, read-out: Percentage inhibition of ligand binding to 5-HT2A receptor): 21%; inhibition at 0.03 µM ([1]; compound concentration 0.03 μM, read-out: Percentage inhibition of ligand binding to 5-HT2A receptor): 54%; inhibition at 0.1 µM ([1]; compound concentration 0.1 μM, read-out: Percentage inhibition of ligand binding to 5-HT2A receptor): 79%; inhibition at 0.3 µM ([1]; compound concentration 0.3 μM, read-out: Percentage inhibition of ligand binding to 5-HT2A receptor): 92%; inhibition at 1 µM ([1]; compound concentration 1 μM, read-out: Percentage inhibition of ligand binding to 5-HT2A receptor): 97%; inhibition at 0.003 µM ([2]; compound concentration 3 nM, read-out: Percentage inhibition of ligand binding to 5-HT6 receptor): 15%; inhibition at 0.01 µM ([2]; compound concentration 10 nM, read-out: Percentage inhibition of ligand binding to 5-HT6 receptor): 42%; inhibition at 0.03 µM ([2]; compound concentration 0.03 μM, read-out: Percentage inhibition of ligand binding to 5-HT6 receptor): 68%; inhibition at 0.1 µM ([2]; compound concentration 0.1 μM, read-out: Percentage inhibition of ligand binding to 5-HT6 receptor): 84%; inhibition at 0.3 µM ([2]; compound concentration 0.3 μM, read-out: Percentage inhibition of ligand binding to 5-HT6 receptor): 96%; inhibition at 1 µM ([2]; compound concentration 1 μM, read-out: Percentage inhibition of ligand binding to 5-HT6 receptor): 100%; inhibition at 1 µM ([3]; compound concentration 1 μM, read-out: Percentage inhibition of ligand binding to Adrenergic α1D receptor): 73%; inhibition at 1 µM ([4]; compound concentration 1 μM, read-out: Percentage inhibition of ligand binding to H1 receptor): 42%; inhibition at 3 µM ([4]; compound concentration 3 μM, read-out: Percentage inhibition of ligand binding to H1 receptor): 75%; inhibition at 10 µM ([4]; compound concentration 10 μM, read-out: Percentage inhibition of ligand binding to H1 receptor): 95%; inhibition at 1 µM ([5]; compound concentration 1 μM, read-out: Percentage inhibition of ligand binding to D2L receptor): 44%; inhibition at 3 µM ([5]; compound concentration 3 μM, read-out: Percentage inhibition of ligand binding to D2L receptor): 64%; inhibition at 10 µM ([5]; compound concentration 10 μM, read-out: Percentage inhibition of ligand binding to D2L receptor): 91%
Cc1ccc2c(c1)c1c(n2CC(O)c2ccccc2F)CN(C)CC1 (stereo not shown) [Compound 60, 2-(2,6-dimethyl-3,4-dihydro-1H-pyrido[3,4-b]indol-9(2H)-yl)-1-(2-fluorophenyl)ethanol] | 74 | 62 | 29 | 19 | 18 | 
Cc1ccc2c(c1)c1c(n2CC(=O)N2CCCCC2)CN(C)CC1 [Compound 57, 2-(2,6-dimethyl-3,4-dihydro-1H-pyrido[3,4-b]indol-9(2H)-yl)-1-(piperidin-1-yl)ethanone] | 28 | 6 | 77 | 0 | 6 | 
CC(C)CCN(C)C(=O)Cn1c2c(c3cc(Cl)ccc31)CCN(C)C2 [Compound 14, 2-(6-chloro-1,2,3,4-tetrahydro-2-methylpyrido[3,4-b]indol-9-yl)-N-isopentyl-N-methylacetamide] | 27 | 12 | 33 | 0 | 6 | 
C/C(=C\n1c2c(c3cc(C)ccc31)CCN(C)C2C)c1ccc(Cl)cc1 (stereo not shown) [Compound 161, 9-(2-(4-chlorophenyl)prop-1-enyl)-1,2,6-trimethyl-2,3,4,9-tetrahydro-1H-pyrido[3,4-b]indole] | 96 | 75 | 32 | 51 | 0 | 
CN1CCc2c(n(CC(=O)N(C)C3CCCCC3)c3ccc(Cl)cc23)C1 [Compound 18, 2-(6-chloro-1,2,3,4-tetrahydro-2-methylpyrido[3,4-b]indol-9-yl)-N-cyclohexyl-N-methylacetamide] | -1 | 1 | 21 | 10 | 0 | 
CN1CCc2c(n(CCN3CCCCC3)c3ccc(Cl)cc23)C1 [Compound 34, 6-chloro-2,3,4,9-tetrahydro-2-methyl-9-(2-(piperidin-1-yl)ethyl)-1H-pyrido[3,4-b]indole] | 31 | 16 | 56 | 56 | 9 | 
CN1CCc2c(n(CCC3CCCC3)c3ccc(Cl)cc23)C1 [Compound 35, 6-chloro-9-(2-cyclopentylethyl)-2,3,4,9-tetrahydro-2-methyl-1H-pyrido[3,4-b]indole] | 69 | 67 | 60 | 98 | 3 | 
